Bridge positions count the residues as written; N and C are the ends. Square brackets hold non-standard residues; d marks the D form. Peptide text beside a SMILES is read from it. * marks the point of attachment. Phe(4-COOH) = N[C@@H](Cc1ccc(C(=O)O)cc1)C(=O)O; Bip = N[C@@H](Cc1ccc(-c2ccccc2)cc1)C(=O)O; Phe(3-CN) = N#Cc1cccc(C[C@H](N)C(=O)O)c1; Phe(4-CN) = N#Cc1ccc(C[C@H](N)C(=O)O)cc1; Phe(3-Me) = Cc1cccc(C[C@H](N)C(=O)O)c1; Dopa = N[C@@H](Cc1ccc(O)c(O)c1)C(=O)O; Val(3-OH) = CC(C)(O)[C@H](N)C(=O)O; 4Pal = N[C@@H](Cc1ccncc1)C(=O)O; 2Thi = N[C@@H](Cc1cccs1)C(=O)O; Cha = N[C@@H](CC1CCCCC1)C(=O)O; Cit = NC(=O)NCCC[C@H](N)C(=O)O; Carboxymethyl = O=C(O)C*; NMeA = CN[C@@H](C)C(=O)O; Pra = C#CC[C@H](N)C(=O)O; dNMeA = CN[C@H](C)C(=O)O; Dab = NCC[C@H](N)C(=O)O; Nva = CCC[C@H](N)C(=O)O
Each compound was assayed against T1, PE-labeled human PD-L1-Ig binding to Jurkat cell line over-expressing human PD-1 (Jurkat-PD-1) (Homo sapiens, UniProt Q15116) (assay: Jurkat-PD-1 Cell Binding High-Content Screening Assay (CBA): Method 1). Conditions: Jurkat-hPD-1 cells, PE-labeled PD-L1-Ig 20 nM final; read-out: Jurkat HPDL1 PD1 IC50 (uM) (Method 1).
T1 construct: expressed in transfected cells; host or cells: Jurkat
T1 sequence (Q15116 25-288): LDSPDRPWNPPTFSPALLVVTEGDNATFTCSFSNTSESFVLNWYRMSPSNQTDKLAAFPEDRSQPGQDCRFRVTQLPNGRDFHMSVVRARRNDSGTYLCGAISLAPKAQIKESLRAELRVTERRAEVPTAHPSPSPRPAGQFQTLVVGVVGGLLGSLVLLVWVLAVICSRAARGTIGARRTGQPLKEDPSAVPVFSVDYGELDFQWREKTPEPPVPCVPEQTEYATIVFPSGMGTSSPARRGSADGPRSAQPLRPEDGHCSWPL

| SMILES | IC50 [µM] |
| --- | --- |
| Cc1cccc(C[C@@H]2NC(=O)[C@H](CC(=O)O)NC(=O)[C@H](Cc3ccc(O)cc3)NC(=O)[C@H](CC(N)=O)NC(=O)CSC[C@@H](C(=O)N[C@H](C)C(N)=O)NC(=O)[C@H](CCC(=O)O)NC(=O)[C@H](C(C)(C)O)NC(=O)[C@H](CC3CCCCC3)NC(=O)[C@H](CCN)NC(=O)[C@@H](CC(C)C)NC(=O)[C@H](C)N(C)C(=O)[C@H](CCCNC(N)=O)NC(=O)[C@H](Cc3ccc(-c4ccccc4)cc3)NC(=O)[C@H](C(C)(C)O)NC2=O)c1 [Compound 1712] ({CH2CO}-NYD[Phe(3-Me)][Val(3-OH)][Bip][Cit][NMeA][dL][Dab][Cha][Val(3-OH)]EC[dA]-NH2; thioether N-14) | 0.24 |
| CC(C)C[C@@H]1NC(=O)[C@H](Cc2c[nH]c3ccccc23)NC(=O)[C@H](CC(=O)O)NC(=O)[C@H](Cc2ccc(O)cc2)NC(=O)[C@H](Cc2ccccc2)NC(=O)CSC[C@@H](C(=O)NCC(N)=O)NC(=O)[C@H](CO)NC(=O)[C@H](C(C)C)NC(=O)[C@H](CC(C)C)NC(=O)[C@H](CC(N)=O)NC(=O)CNC(=O)[C@@H](C)N(C)C(=O)[C@H](C(C)C)NC(=O)[C@H](Cc2ccc(-c3ccccc3)cc2)NC1=O [Compound 1721] ({CH2CO}-FYDWL[Bip]V[dNMeA]GNLVSCG-NH2; thioether N-14) | 0.24 |
| CC(C)C[C@@H]1NC(=O)[C@H](Cc2c[nH]c3ccccc23)NC(=O)[C@H](CC(=O)O)NC(=O)[C@H](Cc2ccc(O)cc2)NC(=O)[C@H](Cc2ccncc2)NC(=O)CSC[C@@H](C(=O)NCC(N)=O)NC(=O)[C@H](CO)NC(=O)[C@H](C(C)C)NC(=O)[C@H](CC(C)C)NC(=O)[C@H](CC(N)=O)NC(=O)[C@@H](C)NC(=O)[C@H](C)N(C)C(=O)[C@H](C(C)C)NC(=O)[C@H](Cc2ccc(-c3ccccc3)cc2)NC1=O [Compound 1722] ({CH2CO}-[4Pal]YDWL[Bip]V[NMeA][dA]NLVSCG-NH2; thioether N-14) | 0.01 |
| CC(C)C[C@@H]1NC(=O)[C@H](Cc2c[nH]c3ccccc23)NC(=O)[C@H](CC(=O)O)NC(=O)[C@H](Cc2cccc(C#N)c2)NC(=O)[C@H](Cc2ccccc2)NC(=O)CSC[C@@H](C(=O)N[C@@H](C)C(N)=O)NC(=O)[C@H](CO)NC(=O)[C@H](C(C)C)NC(=O)[C@H](CC(C)C)NC(=O)[C@H](CC(N)=O)NC(=O)[C@@H](C)NC(=O)[C@H](C)N(C)C(=O)[C@H](C(C)C)NC(=O)[C@H](Cc2ccc(-c3ccccc3)cc2)NC1=O [Compound 1723] ({CH2CO}-F[Phe(3-CN)]DWL[Bip]V[NMeA][dA]NLVSCA-NH2; thioether N-14) | 0.01 |
| CC(C)C[C@@H]1NC(=O)[C@H](Cc2c[nH]c3ccccc23)NC(=O)[C@H](CC(=O)O)NC(=O)[C@H](Cc2ccc(O)c(O)c2)NC(=O)[C@H](Cc2ccccc2)NC(=O)CSC[C@@H](C(=O)N[C@@H](C)C(N)=O)NC(=O)[C@H](CO)NC(=O)[C@H](C(C)C)NC(=O)[C@H](CC(C)C)NC(=O)[C@H](CC(N)=O)NC(=O)[C@@H](C)NC(=O)[C@H](C)N(C)C(=O)[C@H](C(C)C)NC(=O)[C@H](Cc2ccc(-c3ccccc3)cc2)NC1=O [Compound 1724] ({CH2CO}-F[Dopa]DWL[Bip]V[NMeA][dA]NLVSCA-NH2; thioether N-14) | 0.01 |
| CC(C)C[C@@H]1NC(=O)[C@H](Cc2c[nH]c3ccccc23)NC(=O)[C@H](CC(=O)O)NC(=O)[C@H](Cc2cccs2)NC(=O)[C@H](Cc2ccccc2)NC(=O)CSC[C@@H](C(=O)N[C@@H](C)C(N)=O)NC(=O)[C@H](CO)NC(=O)[C@H](C(C)C)NC(=O)[C@H](CC(C)C)NC(=O)[C@H](CC(N)=O)NC(=O)[C@@H](C)NC(=O)[C@H](C)N(C)C(=O)[C@H](C(C)C)NC(=O)[C@H](Cc2ccc(-c3ccccc3)cc2)NC1=O [Compound 1725] ({CH2CO}-F[2Thi]DWL[Bip]V[NMeA][dA]NLVSCA-NH2; thioether N-14) | 0.01 |
| CC(C)C[C@@H]1NC(=O)[C@H](Cc2c[nH]c3ccccc23)NC(=O)[C@H](CC(=O)O)NC(=O)[C@H](Cc2ccc(C#N)cc2)NC(=O)[C@H](Cc2ccccc2)NC(=O)CSC[C@@H](C(=O)N[C@@H](C)C(N)=O)NC(=O)[C@H](CO)NC(=O)[C@H](C(C)C)NC(=O)[C@H](CC(C)C)NC(=O)[C@H](CC(N)=O)NC(=O)[C@@H](C)NC(=O)[C@H](C)N(C)C(=O)[C@H](C(C)C)NC(=O)[C@H](Cc2ccc(-c3ccccc3)cc2)NC1=O [Compound 1726] ({CH2CO}-F[Phe(4-CN)]DWL[Bip]V[NMeA][dA]NLVSCA-NH2; thioether N-14) | 0.01 |
| CC(C)C[C@@H]1NC(=O)[C@H](Cc2c[nH]c3ccccc23)NC(=O)[C@H](CC(=O)O)NC(=O)[C@H](Cc2ccc(O)cc2)NC(=O)[C@H](Cc2ccccc2)NC(=O)CSC[C@@H](C(=O)N[C@@H](C)C(N)=O)NC(=O)[C@H](CO)NC(=O)[C@H](C(C)C)NC(=O)[C@H](CC(C)C)NC(=O)[C@H](CC(N)=O)NC(=O)[C@@H](C)NC(=O)[C@H](C)N(C)C(=O)[C@H](C(C)C)NC(=O)[C@H](Cc2ccc(-c3ccccc3)cc2)NC1=O [Compound 1727] ({CH2CO}-FYDWL[Bip]V[NMeA][dA]NLVSCA-NH2; thioether N-14) | 0.01 |

The next lines start with the values.

| IC50 [µM] | SMILES |
| --- | --- |
| 0.06 | Cc1cccc(C[C@@H]2NC(=O)[C@H](CC(=O)O)NC(=O)[C@H](Cc3ccc(O)cc3)NC(=O)[C@H](CC(N)=O)NC(=O)CSC[C@@H](C(=O)N[C@@H](CCN)C(N)=O)NC(=O)[C@H](CCC(=O)O)NC(=O)[C@H](C(C)(C)O)NC(=O)[C@H](CC3CCCCC3)NC(=O)[C@H](CCN)NC(=O)[C@@H](CC(C)C)NC(=O)[C@H](C)N(C)C(=O)[C@H](CCCNC(N)=O)NC(=O)[C@H](Cc3ccc(-c4ccccc4)cc3)NC(=O)[C@H](C(C)(C)O)NC2=O)c1 [Compound 1711] ({CH2CO}-NYD[Phe(3-Me)][Val(3-OH)][Bip][Cit][NMeA][dL][Dab][Cha][Val(3-OH)]EC[Dab]-NH2; thioether N-14) |
| 0.13 | CC(C)C[C@H]1NC(=O)[C@H](C)N(C)C(=O)[C@H](C(C)(C)O)NC(=O)[C@H](Cc2ccc(-c3ccccc3)cc2)NC(=O)[C@H](C(C)(C)O)NC(=O)[C@H](Cc2c[nH]c3ccccc23)NC(=O)[C@H](CC(=O)O)NC(=O)[C@H](Cc2ccc(C(=O)O)cc2)NC(=O)[C@H](Cc2ccc(OCC(=O)O)cc2)NC(=O)CSC[C@@H](C(=O)N[C@@H](CCN)C(N)=O)NC(=O)[C@H](CCC(=O)O)NC(=O)[C@H](C(C)(C)O)NC(=O)[C@H](CC2CCCCC2)NC(=O)[C@H](CCN)NC1=O [Compound 1713] ({CH2CO}-Y(Carboxymethyl)[Phe(4-COOH)]DW[Val(3-OH)][Bip][Val(3-OH)][NMeA][dL][Dab][Cha][Val(3-OH)]EC[Dab]-NH2; thioether N-14) |
| 0.02 | CC(C)C[C@@H]1NC(=O)[C@H](Cc2c[nH]c3ccccc23)NC(=O)[C@H](CC(=O)O)NC(=O)[C@H](Cc2ccc(C(=O)O)cc2)NC(=O)[C@H](Cc2ccc(OCC(=O)O)cc2)NC(=O)CSC[C@@H](C(=O)N[C@H](C)C(N)=O)NC(=O)[C@H](CO)NC(=O)[C@H](C(C)(C)O)NC(=O)[C@H](CC2CCCCC2)NC(=O)[C@H](CCN)NC(=O)[C@@H](CC(C)C)NC(=O)[C@H](C)N(C)C(=O)[C@H](C(C)(C)O)NC(=O)[C@H](Cc2ccc(-c3ccccc3)cc2)NC1=O [Compound 1714] ({CH2CO}-Y(Carboxymethyl)[Phe(4-COOH)]DWL[Bip][Val(3-OH)][NMeA][dL][Dab][Cha][Val(3-OH)]SC[dA]-NH2; thioether N-14) |
| 0.06 | CC(C)C[C@@H]1NC(=O)[C@H](Cc2c[nH]c3ccccc23)NC(=O)[C@H](CC(=O)O)NC(=O)[C@H](Cc2ccc(C(=O)O)cc2)NC(=O)[C@H](Cc2ccc(OCC(=O)O)cc2)NC(=O)CSC[C@@H](C(=O)N[C@H](C)C(N)=O)NC(=O)[C@H](CCC(=O)O)NC(=O)[C@H](C(C)(C)O)NC(=O)[C@H](CC2CCCCC2)NC(=O)[C@H](CCN)NC(=O)[C@@H](CC(C)C)NC(=O)[C@H](C)N(C)C(=O)[C@H](C(C)(C)O)NC(=O)[C@H](Cc2ccc(-c3ccccc3)cc2)NC1=O [Compound 1715] ({CH2CO}-Y(Carboxymethyl)[Phe(4-COOH)]DWL[Bip][Val(3-OH)][NMeA][dL][Dab][Cha][Val(3-OH)]EC[dA]-NH2; thioether N-14) |
| 0.01 | CC(C)C[C@@H]1NC(=O)[C@H](Cc2c[nH]c3ccccc23)NC(=O)[C@H](CC(=O)O)NC(=O)[C@H](Cc2ccc(C(=O)O)cc2)NC(=O)[C@H](Cc2ccc(OCC(=O)O)cc2)NC(=O)CSC[C@@H](C(=O)N[C@@H](CCN)C(N)=O)NC(=O)[C@H](CO)NC(=O)[C@H](C(C)(C)O)NC(=O)[C@H](CC2CCCCC2)NC(=O)[C@H](CCN)NC(=O)[C@@H](CC(C)C)NC(=O)[C@H](C)N(C)C(=O)[C@H](C(C)(C)O)NC(=O)[C@H](Cc2ccc(-c3ccccc3)cc2)NC1=O [Compound 1716] ({CH2CO}-Y(Carboxymethyl)[Phe(4-COOH)]DWL[Bip][Val(3-OH)][NMeA][dL][Dab][Cha][Val(3-OH)]SC[Dab]-NH2; thioether N-14) |
| 0.02 | CC(C)C[C@@H]1NC(=O)[C@H](Cc2c[nH]c3ccccc23)NC(=O)[C@H](CC(=O)O)NC(=O)[C@H](Cc2ccc(C(=O)O)cc2)NC(=O)[C@H](Cc2ccc(OCC(=O)O)cc2)NC(=O)CSC[C@@H](C(=O)N[C@@H](CCN)C(N)=O)NC(=O)[C@H](CCC(=O)O)NC(=O)[C@H](C(C)(C)O)NC(=O)[C@H](CC2CCCCC2)NC(=O)[C@H](CCN)NC(=O)[C@@H](CC(C)C)NC(=O)[C@H](C)N(C)C(=O)[C@H](C(C)(C)O)NC(=O)[C@H](Cc2ccc(-c3ccccc3)cc2)NC1=O [Compound 1717] ({CH2CO}-Y(Carboxymethyl)[Phe(4-COOH)]DWL[Bip][Val(3-OH)][NMeA][dL][Dab][Cha][Val(3-OH)]EC[Dab]-NH2; thioether N-14) |
| 0.03 | C#CC[C@H](NC(=O)[C@@H](CC(N)=O)NC(=O)[C@@H]1CSCC(=O)N[C@@H](Cc2ccc(OCC(=O)O)cc2)C(=O)N[C@@H](Cc2ccc(OCC(=O)O)cc2)C(=O)N[C@@H](CC(=O)O)C(=O)N[C@@H](Cc2c[nH]c3ccccc23)C(=O)N[C@@H](C(C)C)C(=O)N[C@@H](Cc2ccc(-c3ccccc3)cc2)C(=O)N[C@@H]([C@@H](C)CC)C(=O)N(C)[C@@H](C)C(=O)N[C@H](CC(C)C)C(=O)N[C@@H](CCC)C(=O)N[C@@H](CC2CCCCC2)C(=O)N[C@@H](C(C)(C)O)C(=O)N[C@@H](CO)C(=O)N1)C(N)=O [Compound 1718] ({CH2CO}-Y(Carboxymethyl)Y(Carboxymethyl)DWV[Bip]I[NMeA][dL][Nva][Cha][Val(3-OH)]SC[dN][Pra]-NH2; thioether N-14) |
